US9290457B2, “Substituted dihydropyrimidinones and their use as inhibitors of neutrophil elastase activity” (Boehringer Ingelheim International GmbH, priority 2014, dated 2016)

Biological target: neutrophil elastase (Homo sapiens (Human), UniProt P08246)
Test: Human Neutrophil Elastase Assay
Type: biochemical
Details: substrate MeOSuc-Ala-Ala-Pro-Val-AMC
Protocol: Human Neutrophil Elastase Assay
All other materials were of the highest grade commercially available.
The following buffers were used: Compound buffer: 100 mM Tris, 500 mM NaCl, adjusted to pH 7.5; Assay buffer: 100 mM Tris, 500 mM NaCl, adjusted to pH 7.5, containing 0.01% BSA.
Assay conditions: Test compounds were prediluted in DMSO and subsequently in compound buffer (5% DMSO final). […] After inactivation of the enzyme, fluorescence intensities were measured at 380 nm excitation and 460 nm emission wavelengths.
Each plate contains wells with a high value control (DMSO+enzyme+substrate) and wells with a low value control (DMSO+inactivated enzyme+substrate). IC50 values were estimated using a sigmoidal concentration response curve with variable slope. Means of low values were taken as 0%, means of high values as 100%.

Sequence of neutrophil elastase (P08246 30-247): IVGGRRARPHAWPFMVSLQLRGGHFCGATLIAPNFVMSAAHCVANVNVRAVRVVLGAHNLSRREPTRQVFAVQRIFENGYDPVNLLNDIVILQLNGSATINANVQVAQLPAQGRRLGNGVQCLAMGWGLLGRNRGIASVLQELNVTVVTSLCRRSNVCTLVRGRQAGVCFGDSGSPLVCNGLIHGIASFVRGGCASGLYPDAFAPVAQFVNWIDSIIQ

Row | SMILES | IC50
1 | CC(=O)C1=C(C)N(c2cccc(C(F)(F)F)c2)C(=O)N(C)C1c1ccc(C#N)cc1C(N)=O (stereo not shown) [Example 1, 2-[5-Acetyl-3,6-dimethyl-2-oxo-1-(3-trifluoromethyl-phenyl)-1,2,3,4-tetrahydro-pyrimidin-4-yl]-5-cyano-benzamide] | < 1 nM
2 | CNC(=O)c1cc(C#N)ccc1C1C(C(C)=O)=C(C)N(c2cccc(C(F)(F)F)c2)C(=O)N1C (stereo not shown) [Example 1.1] | < 1 nM
3 | CC(=O)C1=C(C)N(c2cccc(C(F)(F)F)c2)C(=O)N(C)C1c1ccc(C#N)cc1C(=O)N(C)C (stereo not shown) [Example 1.2] | < 1 nM
4 | CC(=O)C1=C(C)N(c2cccc(C(F)(F)F)c2)C(=O)N(C)C1c1ccc(C#N)cc1C(=O)N1CCOCC1 (stereo not shown) [Example 1.3] | 2.25 nM
5 | CCNC(=O)c1cc(C#N)ccc1C1C(C(C)=O)=C(C)N(c2cccc(C(F)(F)F)c2)C(=O)N1C (stereo not shown) [Example 1.4] | < 1 nM
6 | C#CCNC(=O)c1cc(C#N)ccc1C1C(C(C)=O)=C(C)N(c2cccc(C(F)(F)F)c2)C(=O)N1C (stereo not shown) [Example 1.5] | < 1 nM
7 | CC(=O)C1=C(C)N(c2cccc(C(F)(F)F)c2)C(=O)N(C)C1c1ccc(C#N)cc1C(=O)N1CCC1 (stereo not shown) [Example 1.7] | < 1 nM
8 | CC(=O)C1=C(C)N(c2cccc(C(F)(F)F)c2)C(=O)N(C)C1c1ccc(C#N)cc1C(=O)NCCO (stereo not shown) [Example 1.9] | < 1 nM
9 | CC(=O)C1=C(C)N(c2cccc(C(F)(F)F)c2)C(=O)N(C)C1c1ccc(C#N)cc1C(=O)N1CCCC1 (stereo not shown) [Example 1.11] | < 1 nM
10 | CC(=O)C1=C(C)N(c2cccc(C(F)(F)F)c2)C(=O)N(C)C1c1ccc(C#N)cc1C(=O)N1CC(O)C1 (stereo not shown) [Example 1.12] | < 1 nM
11 | CC(=O)C1=C(C)N(c2cccc(C(F)(F)F)c2)C(=O)N(C)C1c1ccc(C#N)cc1C(=O)NC1COC1 (stereo not shown) [Example 1.13] | < 1 nM
12 | CC(=O)C1=C(C)N(c2cccc(C(F)(F)F)c2)C(=O)N(C)C1c1ccc(C#N)cc1C(=O)N(C)CCO (stereo not shown) [Example 1.14] | < 1 nM
13 | COCCNC(=O)c1cc(C#N)ccc1C1C(C(C)=O)=C(C)N(c2cccc(C(F)(F)F)c2)C(=O)N1C (stereo not shown) [Example 1.15] | < 1 nM
14 | CC(=O)C1=C(C)N(c2cccc(C(F)(F)F)c2)C(=O)N(C)C1c1ccc(C#N)cc1C(=O)NCCCO (stereo not shown) [Example 1.16] | < 1 nM
15 | CC(=O)C1=C(C)N(c2cccc(C(F)(F)F)c2)C(=O)N(C)C1c1ccc(C#N)cc1C(=O)NCC(F)F (stereo not shown) [Example 1.17] | < 1 nM
16 | CC(=O)C1=C(C)N(c2cccc(C(F)(F)F)c2)C(=O)N(C)C1c1ccc(C#N)cc1C(=O)NC12CC(C1)C2 (stereo not shown) [Example 1.18] | 1 nM
17 | CC(=O)C1=C(C)N(c2cccc(C(F)(F)F)c2)C(=O)N(C)C1c1ccc(C#N)cc1C(=O)NC1CCOC1 (stereo not shown) [Example 1.19] | < 1 nM
18 | COCCCNC(=O)c1cc(C#N)ccc1C1C(C(C)=O)=C(C)N(c2cccc(C(F)(F)F)c2)C(=O)N1C (stereo not shown) [Example 1.20] | < 1 nM
19 | COCCN(C)C(=O)c1cc(C#N)ccc1C1C(C(C)=O)=C(C)N(c2cccc(C(F)(F)F)c2)C(=O)N1C (stereo not shown) [Example 1.21] | < 1 nM
20 | CC(=O)C1=C(C)N(c2cccc(C(F)(F)F)c2)C(=O)N(C)C1c1ccc(C#N)cc1C(=O)NCC(F)(F)F (stereo not shown) [Example 1.23] | < 1 nM
21 | CC(=O)C1=C(C)N(c2cccc(C(F)(F)F)c2)C(=O)N(C)C1c1ccc(C#N)cc1C(=O)NC1CCOCC1 (stereo not shown) [Example 1.24] | < 1 nM
22 | CC(=O)C1=C(C)N(c2cccc(C(F)(F)F)c2)C(=O)N(C)C1c1ccc(C#N)cc1C(=O)NC1CCC(O)C1 (stereo not shown) [Example 1.25] | 1.1 nM
23 | CC(=O)C1=C(C)N(c2cccc(C(F)(F)F)c2)C(=O)N(C)C1c1ccc(C#N)cc1C(=O)N1CCC(O)CC1 (stereo not shown) [Example 1.26] | 4.7 nM
24 | COCCCN(C)C(=O)c1cc(C#N)ccc1C1C(C(C)=O)=C(C)N(c2cccc(C(F)(F)F)c2)C(=O)N1C (stereo not shown) [Example 1.27] | < 1 nM
25 | CC(=O)C1=C(C)N(c2cccc(C(F)(F)F)c2)C(=O)N(C)C1c1ccc(C#N)cc1C(=O)NC1CCN(C)CC1 (stereo not shown) [Example 1.28] | < 1 nM
